The assay addresses Envelope glycoprotein gp160 (Human immunodeficiency virus 1, UniProt Q6QLK5). Description: cell-free HIV fusion peptide-binding blockers – biochemical, uHTS, fluorescence dequenching, […] (AID 1986).

We go through 1 compound from ChEMBL document CHEMBL1201862, “PubChem BioAssay data set” (2004).

The source made the active and inactive calls. Rule as the data show it: actives have a measured IC50 and inactives only a lower limit.

Sequence of Envelope glycoprotein gp160 (Q6QLK5 whole entry, the tested form may be a part): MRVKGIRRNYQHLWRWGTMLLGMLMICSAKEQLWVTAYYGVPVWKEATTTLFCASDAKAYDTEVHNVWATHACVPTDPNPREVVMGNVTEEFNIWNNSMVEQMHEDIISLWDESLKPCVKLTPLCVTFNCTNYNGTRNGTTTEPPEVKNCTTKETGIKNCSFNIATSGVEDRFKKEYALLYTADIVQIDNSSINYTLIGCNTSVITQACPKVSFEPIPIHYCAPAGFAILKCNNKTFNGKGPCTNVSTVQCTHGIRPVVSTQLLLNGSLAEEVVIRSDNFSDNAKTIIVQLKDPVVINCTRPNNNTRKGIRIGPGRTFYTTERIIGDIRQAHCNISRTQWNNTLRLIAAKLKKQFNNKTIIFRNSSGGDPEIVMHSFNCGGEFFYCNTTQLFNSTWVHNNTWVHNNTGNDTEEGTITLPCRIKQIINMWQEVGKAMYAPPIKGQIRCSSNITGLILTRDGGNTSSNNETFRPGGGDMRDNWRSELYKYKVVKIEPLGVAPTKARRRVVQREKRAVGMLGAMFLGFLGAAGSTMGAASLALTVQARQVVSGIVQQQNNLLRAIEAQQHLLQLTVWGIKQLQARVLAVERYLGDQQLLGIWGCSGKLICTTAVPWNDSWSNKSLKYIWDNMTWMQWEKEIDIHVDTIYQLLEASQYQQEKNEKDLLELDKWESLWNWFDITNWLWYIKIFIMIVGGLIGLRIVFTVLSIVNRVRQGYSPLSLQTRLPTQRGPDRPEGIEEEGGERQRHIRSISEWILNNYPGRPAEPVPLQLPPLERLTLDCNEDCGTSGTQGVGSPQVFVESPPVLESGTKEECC

In general, IC50 refers to the concentration needed to halve the response being measured. As for `COc1cc(/C=C2\SC(=O)N(CC(=O)Nc3cccc(C)c3)C2=O)cc([N+](=O)[O-])c1O`, the IC50 is 23.1 µM (active).
